Numbered stars: 1 amine (or outer) side, 2 acyl side, 3 side chain; on linkers, the order of the positions; unused ones are H or OH. Bridge positions count the residues as written; N and C are the ends. Square brackets hold non-standard residues; d marks the D form. Peptide text beside a SMILES is read from it. Trp(βS-Me,7-OMe) = COc1cccc2c([C@H](C)[C@H](N)C(=O)O)c[nH]c12; Trp(7-CN) = N#Cc1cccc2c(C[C@H](N)C(=O)O)c[nH]c12; Trp(7-Cl) = N[C@@H](Cc1c[nH]c2c(Cl)cccc12)C(=O)O; Phe(4-CONH2) = NC(=O)c1ccc(C[C@H](N)C(=O)O)cc1; Phe(4-COOH) = N[C@@H](Cc1ccc(C(=O)O)cc1)C(=O)O; 4Pal(3S-Me) = C[C@@H](c1ccncc1)[C@H](N)C(=O)O; Trp(7-aza) = N[C@@H](Cc1c[nH]c2ncccc12)C(=O)O; X1 = O=C([C@@H]1CC[C@H](N[*:1])C1)[*:2]; X68 = O=C([C@@H]1CSCCN1[*:1])[*:2]; Pip(4-aza) = O=C(O)[C@@H]1CNCCN1; 4Pal = N[C@@H](Cc1ccncc1)C(=O)O; NMeE = CN[C@@H](CCC(=O)O)C(=O)O; dHyp = O=C(O)[C@H]1C[C@H](O)CN1; X7 = CC[C@@H](C(=O)[*:1])[*:2]; Ahp(2) = CCCCC[C@H](N)C(=O)O; αMeS = C[C@](N)(CO)C(=O)O; Nle = CCCC[C@H](N)C(=O)O; dNMeA = CN[C@H](C)C(=O)O; Sar = CNCC(=O)O
Biological target: T1, human soluble TNFR1 (sTNFR1) (Homo sapiens, UniProt P19438)
T1 construct: made in house; host or cells: Sf21 (baculovirus)
T1 sequence (P19438 with tags, fused parts or gaps): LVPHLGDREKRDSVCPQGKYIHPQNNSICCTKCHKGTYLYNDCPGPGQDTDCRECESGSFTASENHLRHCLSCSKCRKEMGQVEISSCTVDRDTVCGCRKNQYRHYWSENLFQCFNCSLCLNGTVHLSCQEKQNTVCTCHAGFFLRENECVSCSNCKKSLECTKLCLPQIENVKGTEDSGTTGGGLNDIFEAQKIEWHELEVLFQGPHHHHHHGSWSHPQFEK
Experiment: Human sTNFR1-peptide displacement assay (LanthaScreen Eu TR-FRET binding assay)
Method: A. Procedure for Human sTNFR1-Peptide Displacement Assay
The affinity was determined using LanthaScreen Eu-based time-resolved fluorescence resonance energy transfer (TR-FRET)-based binding assay.
A TR-FRET assay measuring the displacement of biotinylated peptide SEQ ID NO. 1 from human soluble TNFR1 (sTNFR1) in a pre-formed complex by a macrocyclic peptide yields the affinity (Kd^app) of the cyclic peptide for sTNFR1. The reagents for the assay include: the C′-terminally 6His-tagged sTNFR1 (residues 1-211) protein purified from a Sf21 baculovirus expression system, the biotin-tagged B0372 peptide described in section “Preparation of Final Compounds”, part E, the LanthaScreen™ anti-His Tag Europium donor (Life Technologies Corporation (San Diego, CA), cat. #PV5597), and a streptavidin-conjugate Alexa Fluor™ 647 acceptor (Invitrogen (Waltham, MA), cat. #S32357). Time-resolved TR-FRET is achieved when sTNFR1 is bound to biotinylated peptide SEQ ID NO. 1 through coupling of the donor and acceptor FRET pair.
100 nM biotinylated peptide SEQ ID NO. […] 100 nM biotinylated peptide SEQ ID NO. 1 was chosen as it reflects the ˜Kd for this complex. After 30 min at ambient temperature, each test peptide (2 mM stock in DMSO) is titrated in a 20 point, ˜3-fold discrete dose-response using an acoustic-dispense liquid handler. Specifically, 80 nL of peptide/DMSO is transferred into a ProxiPlate-384 Plus 384-well assay plate (PerkinElmer, cat. #6008289). To this plate, 8 μL of the previously formed sTNFR 1-biotinylated peptide SEQ ID NO. 1 complex is added and allowed to reach binding equilibrium with the test peptide at ambient temperature for 90 min.
The TR-FRET signal is measured with the following EnVision® settings: excitation laser at 337 nm; emission1=615 nm, emission2=665 nm, LANCE/DELFIA dichroic mirror, delay time=[…]. The signal of each well is determined as the ratio of the emission at 665 nm to that at 615 nm. Percent displacement is determined by normalization to control wells containing DMSO (0%) or a saturating concentration of a displaceable peptide (100%). The %-effect as a function of peptide concentration is fit to a five-parameter logistic fit based on the Morrison equation to account for tight binding kinetics.

CCCC[C@@H]1NC(=O)[C@H](CC)SC[C@@H](C(N)=O)NC(=O)[C@H]([C@@H](C)c2c[nH]c3c(OC)cccc23)NC(=O)CN(C)C(=O)[C@H](Cc2ccc(O)cc2)NC(=O)[C@H](Cc2ccc(C(N)=O)cc2)NC(=O)[C@](C)(CO)NC(=O)[C@H](Cc2c[nH]c3c(Cl)cccc23)NC(=O)[C@H](Cc2ccncc2)NC(=O)[C@H](CC(N)=O)NC(=O)[C@H](CCC(=O)O)N(C)C(=O)[C@H](Cc2c[nH]c3ccccc23)NC(=O)[C@@H]2CSCCN2C(=O)[C@H](Cc2ccncc2)NC1=O [SEQ ID NO. 246] ([Nle][4Pal][X68]W[NMeE]N[4Pal][Trp(7-Cl)][αMeS][Phe(4-CONH2)]Y[Sar][Trp(βS-Me,7-OMe)]C-NH2; linker N-14 via X7)
IC50: 1.15 nM

CCCC[C@@H]1NC(=O)CSC[C@@H](C(=O)NCC(=O)N[C@@H](CCC(=O)O)C(=O)N[C@@H](CCC(=O)O)C(N)=O)NC(=O)[C@H]([C@@H](C)c2c[nH]c3c(OC)cccc23)NC(=O)CN(C)C(=O)[C@H](Cc2ccc(O)cc2)NC(=O)[C@H](Cc2ccc(C(=O)O)cc2)NC(=O)[C@](C)(CO)NC(=O)[C@H](Cc2c[nH]c3c(Cl)cccc23)NC(=O)[C@H](Cc2ccncc2)NC(=O)[C@H](CC(N)=O)NC(=O)[C@H](CCC(=O)O)N(C)C(=O)[C@H](Cc2c[nH]c3ncccc23)NC(=O)[C@@H]2CNCCN2C(=O)[C@H](Cc2ccncc2)NC1=O [SEQ ID NO. 255] ({CH2CO}-[Nle][4Pal][Pip(4-aza)][Trp(7-aza)][NMeE]N[4Pal][Trp(7-Cl)][αMeS][Phe(4-COOH)]Y[Sar][Trp(βS-Me,7-OMe)]CGEE-NH2; thioether N-14)
IC50: 0.7 nM
Kd: 1.01 nM

CCCC[C@@H]1NC(=O)CSC[C@@H](C(N)=O)NC(=O)[C@H]([C@@H](C)c2c[nH]c3c(OC)cccc23)NC(=O)CN(C)C(=O)[C@H](Cc2ccc(O)cc2)NC(=O)[C@H](Cc2ccc(C(=O)O)cc2)NC(=O)[C@](C)(CO)NC(=O)[C@H](Cc2c[nH]c3c(Cl)cccc23)NC(=O)[C@H](Cc2ccncc2)NC(=O)[C@H](CC(N)=O)NC(=O)[C@H](CCC(=O)O)N(C)C(=O)[C@H](Cc2c[nH]c3ncccc23)NC(=O)[C@@H]2CNCCN2C(=O)[C@H](Cc2c[nH]cn2)NC1=O [SEQ ID NO. 264] ({CH2CO}-[Nle]H[Pip(4-aza)][Trp(7-aza)][NMeE]N[4Pal][Trp(7-Cl)][αMeS][Phe(4-COOH)]Y[Sar][Trp(βS-Me,7-OMe)]C-NH2; thioether N-14)
IC50: 1.49 nM

CCCC[C@@H]1NC(=O)CSC[C@@H](C(N)=O)NC(=O)[C@H]([C@@H](C)c2c[nH]c3c(OC)cccc23)NC(=O)[C@@H](C)N(C)C(=O)[C@H](Cc2ccc(O)cc2)NC(=O)[C@H](Cc2ccc(C(=O)O)cc2)NC(=O)[C@](C)(CO)NC(=O)[C@H](Cc2c[nH]c3c(Cl)cccc23)NC(=O)[C@H](Cc2ccncc2)NC(=O)[C@H](CC(N)=O)NC(=O)[C@H]2CCCN2C(=O)[C@H](Cc2c[nH]c3ccccc23)NC(=O)[C@@H]2CNCCN2C(=O)[C@H](Cc2ccncc2)NC1=O [SEQ ID NO. 276] ({CH2CO}-[Nle][4Pal][Pip(4-aza)]W[dP]N[4Pal][Trp(7-Cl)][αMeS][Phe(4-COOH)]Y[dNMeA][Trp(βS-Me,7-OMe)]C-NH2; thioether N-14)
IC50: 2.41 nM

CCCCC[C@@H]1NC(=O)[C@@H]2CC[C@@H](C2)NC(=O)[C@H]([C@@H](C)c2c[nH]c3c(OC)cccc23)NC(=O)CN(C)C(=O)[C@H](Cc2ccc(C(N)=O)cc2)NC(=O)[C@H](Cc2ccc(C(N)=O)cc2)NC(=O)[C@](C)(CO)NC(=O)[C@H](Cc2c[nH]c3c(C#N)cccc23)NC(=O)[C@H](Cc2ccc(C(=O)O)cc2)NC(=O)[C@H](CC(N)=O)NC(=O)[C@H]2C[C@H](O)CN2C(=O)[C@H](Cc2c[nH]c3ccccc23)NC(=O)[C@H](CCC(=O)O)NC(=O)[C@H]([C@@H](C)c2ccncc2)NC1=O [SEQ ID NO. 280] (cyclo([Ahp(2)][4Pal(3S-Me)]EW[dHyp]N[Phe(4-COOH)][Trp(7-CN)][αMeS][Phe(4-CONH2)][Phe(4-CONH2)][Sar][Trp(βS-Me,7-OMe)][X1]))
Kd: 0.25 nM
